Measurements taken from patent US12036312B2, “Non-aqueous topical compositions comprising a halogenated salicylanilide” (priority 2016, dated 2024).

Tested on: S. aureus
Assay: MIC assay according to CLSI criteria, Example 2, S. aureus strains
Format: cell-based, Staphylococcus aureus
Settings: Staphylococcus aureus
Source text: Chosen for its relevance regarding bacterial skin infections, the methicillin-resistant S. aureus (MRSA) 01 strain was used as the primary test microorganism. This strain is a community-acquired MRSA clinical isolate of USA 300 type, from a skin abscess.
Two-hundred-four other MRSA and methicillin-sensitive S. aureus strains, and 4 Streptococcus pyogenes strains, were also included in the study. These covered fusidic acid- and mupirocin-resistant strains, these two types of resistance being of clinical relevance.
Strains were conserved in Luria Bertani (LB) Broth (S. aureus) or Brain Heart Infusion (BHI) (S. pyogenes) supplemented with glycerol 15% (v/v) at −80° C., and reactivated by isolation on LB (S. aureus) or BHI (S. pyogenes) agar plates. Strains were cultivated in Mueller Hinton (MH) Broth-cation adjusted (S. aureus) or BHI (S. pyogenes). All strains were cultivated aerobically (microaerobically for S. pyogenes strains) at 37° C.
Bacterial cultures were stopped in their exponential growth phase and plates were inoculated with the approximate concentration of 5×10^5 cells per well. Plates were incubated at 37° C. for 18 hours (S. aureus) or 24 hours (S. pyogenes). Optical density at a wavelength of 600 nm was measured at the end of the incubation time.

Measured: MIC

CN[C@H](CC(C)C)C(=O)N[C@H]1C(=O)N[C@@H](CC(N)=O)C(=O)N[C@H]2C(=O)N[C@H]3C(=O)N[C@H](C(=O)N[C@H](C(=O)O)c4cc(O)cc(O)c4-c4cc3ccc4O)[C@H](O)c3ccc(c(Cl)c3)Oc3cc2cc(c3O[C@@H]2O[C@H](CO)[C@@H](O)[C@H](O)[C@H]2O[C@H]2C[C@](C)(N)[C@H](O)[C@H](C)O2)Oc2ccc(cc2Cl)[C@H]1O [Vancomycin, vancomycin]
1 µg/mL: ATCC29213, strain ATCC 29213 | MRSA, strain MRSA 01 | MRSA, strain MRSA 03 | MRSA, strain MRSA 05 | MRSA, strain MRSA 07 | MRSA, strain MRSA 08 | MRSA, strain MRSA 10 | MRSA, strain MRSA 11 | MRSA, strain MRSA 13 | MRSA, strain MRSA 14 | MRSA, strain MRSA 16 | MRSA, strain MRSA 18 | MRSA, strain MRSA 19 | MRSA, strain MRSA 20 | MRSA, strain MRSA 21 | MRSA, strain MRSA 23 | MRSA, strain MRSA 25 | MRSA, strain MRSA 26 | MRSA, strain MRSA 27 | MRSA, strain MRSA 27b | MRSA, strain MRSA 28 | MRSA, strain MRSA 29 | MRSA, strain MRSA 30 | MRSA, strain MRSA 31 | MRSA, strain MRSA 32 | MRSA, strain MRSA 33 | MRSA, strain MRSA 34 | MRSA, strain MRSA 35 | MRSA, strain MRSA 36 | MRSA, strain MRSA 37 | MRSA, strain MRSA 38 | MRSA, strain MRSA 39 | MRSA, strain MRSA 40 | MRSA, strain MRSA 41 | MRSA, strain MRSA 42 | MRSA, strain MRSA 43 | MRSA, strain MRSA 44 | MRSA, strain MRSA 45 | MRSA, strain MRSA 46 | MRSA, strain MRSA 50 | MRSA, strain MRSA 51 | MRSA, strain MRSA 52 | MRSA, strain MRSA 53 | MRSA, strain MRSA 56 | MRSA, strain MRSA 57 | MRSA, strain MRSA 58 | MRSA, strain MRSA 59 | MRSA, strain MRSA 63 | MRSA, strain MRSA 64 | MRSA, strain MRSA 65 | MRSA, strain MRSA 66 | MRSA, strain MRSA 67 | MRSA, strain MRSA 68 | MRSA, strain MRSA 69 | MRSA, strain MRSA 70 | MRSA, strain MRSA 71 | MRSA, strain MRSA 72 | MRSA, strain MRSA 73 | MRSA, strain MRSA 74 | MRSA, strain MRSA 75 | MRSA, strain MRSA 76 | MRSA, strain MRSA 78 | MRSA, strain MRSA 79 | MRSA, strain MRSA 80 | MRSA, strain MRSA 81 | MRSA, strain MRSA 83 | MRSA, strain MRSA 85 | MRSA, strain MRSA 87 | MRSA, strain MRSA 88 | MRSA, strain MRSA 89 | MRSA, strain MRSA 90 | MRSA, strain MRSA 91 | MRSA, strain MRSA 92 | MRSA, strain MRSA 96 | MRSA, strain MRSA 97 | MRSA, strain MRSA 98 | MRSA, strain MRSA 99 | MRSA, strain MRSA 100 | MRSA, strain MRSA 101 | MRSA, strain MRSA 103 | MRSA, strain MRSA 104 | MRSA, strain MRSA 105 | MRSA, strain MRSA 106 | MRSA, strain MRSA 108 | MRSA, strain MRSA 109 | MRSA, strain MRSA 110 | MRSA, strain MRSA 111 | MRSA, strain MRSA 112 | MRSA, strain MRSA 113 | MSSA, strain MSSA 01 | MSSA, strain MSSA 02 | strain 9-1862936 | strain 9-2625962 | strain 9-2642158 | strain 9-2955245 | strain 9-26422166 | strain 000040C | strain 000041C | strain 000274T | strain 114660U | strain 115242C | strain 115268C | strain 115273C | strain 115295C | strain 115303C | strain 115370U | strain 115427C | strain 115445C | strain 115561C | strain 115691T | strain 115740E | strain 115810E | strain 115903T | strain 116122T | strain E5-1029252 | strain E5-1029558 | strain E5-1030440 | strain E5-1030472 | strain E5-1030482 | strain E5-1033076 (first listing, r204) | strain E5-1033076 (second listing, r205) | strain E5-1033088 | strain E5-1033091 | strain E5-1035277 | strain E5-1035284 | strain E5-1035775 | strain E5-1035779 | strain E5-1037958 | strain E5-1037971 | strain E5-1038279 | strain E5-1038286 | strain E5-1038294 | strain E5-1039684 | strain E5-1039697 | strain E5-1041979 | strain E5-1041980 | strain E5-1041987 | strain E5-1043184 | strain E5-1043668 | strain E5-1045179 | strain E5-1046019 | strain E5-1046020 | strain E5-1046039 | strain E5-1046070 | strain E5-1046074 | strain E5-1046096 | strain E5-1046296 | strain E5-1046297 | strain E5-1046298 | strain E5-1047585 | strain E5-1047606 | strain E5-1047924 | strain E5-1048428 | strain E5-1048654 | strain EEFIC 01 | strain EEFIC 02 | strain K000772 | strain K000796 | strain K000863 | strain K000864 | strain K000866 | strain R000020 | strain R000024 | strain U115579
2 µg/mL: MRSA, strain MRSA 02 | MRSA, strain MRSA 04 | MRSA, strain MRSA 06 | MRSA, strain MRSA 09 | MRSA, strain MRSA 15 | MRSA, strain MRSA 17 | MRSA, strain MRSA 24 | MRSA, strain MRSA 49 | MRSA, strain MRSA 54 | MRSA, strain MRSA 61 | MRSA, strain MRSA 62 | MRSA, strain MRSA 77 | MRSA, strain MRSA 82 | MRSA, strain MRSA 84 | MRSA, strain MRSA 86 | MRSA, strain MRSA 93 | MRSA, strain MRSA 94 | MRSA, strain MRSA 95 | MRSA, strain MRSA 102 | MRSA, strain MRSA 107 | NEWMAN, strain Newman | strain 115015T | strain 115263C | strain 115584D | strain 115628T | strain 115690C | strain E5-1030469 | strain E5-1041977 | strain E5-1046085 | strain E5-1046723 | strain E5-1048204 | strain E5-1048670 | strain K115498 | strain K115688 | strain K115689 | strain R000019
0.5 µg/mL: MRSA, strain MRSA 22 | MRSA, strain MRSA 47 | MRSA, strain MRSA 48 | MRSA, strain MRSA 55 | MRSA, strain MRSA 60
